Laboratory results reported in article PMC5448077, “Development of an orally available inhibitor of CLK1 for skipping a mutated dystrophin exon in Duchenne muscular dystrophy” (Scientific Reports, 2017).

Legend:
Test in all cases: biochemical
KIT(T670I) = KIT(T670I) (Homo sapiens, UniProt P10721, T670I)
In short: (§1)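 Human kinases phosphorylating kinase-specific synthetic peptides, assayed by mobility shift (MSA) or IMAP fluorescence polarization, in 20 mM HEPES pH 7.5, 0.01% Triton X-100, 2 mM DTT with substrate/ATP-metal. Reactions ran 1 or 5 h at room temperature; activity = P/(P + S) from product and substrate peak heights.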

PKCγ = molecular target: T1, PKCγ (Homo sapiens, UniProt P05129)
T1 construct: gene PRKCG
In short: as §1

CRIK = molecular target: T2, CRIK (Homo sapiens, UniProt O14578)
T2 construct: gene CIT
In short: as §1

TRKA = molecular target: T3, TRKA (Homo sapiens, UniProt P04629)
T3 construct: gene NTRK1
In short: as §1

CDC7/ASK = CDC7/ASK (Homo sapiens, UniProt O00311)
In short: as §1

CK1δ = molecular target: T4, CK1δ (Homo sapiens, UniProt P48730)
T4 construct: gene CSNK1D
In short: as §1

KDR = KDR (Homo sapiens, UniProt P35968)
In short: as §1

DCAMKL2 = molecular target: T5, DCAMKL2 (Homo sapiens, UniProt Q8N568)
T5 construct: gene DCLK2
In short: as §1

p38γ = molecular target: T6, p38γ (Homo sapiens, UniProt P53778)
T6 construct: gene MAPK12
In short: as §1

PBK = PBK (Homo sapiens, UniProt Q96KB5)
In short: as §1

JAK3 = JAK3 (Homo sapiens, UniProt P52333)
In short: as §1

ABL = molecular target: T7, ABL (Homo sapiens, UniProt P00519)
T7 construct: gene ABL1
In short: as §1

MST1 = molecular target: T8, MST1 (Homo sapiens, UniProt Q13043)
T8 construct: gene STK4
In short: as §1

MRCKα = molecular target: T9, MRCKα (Homo sapiens, UniProt Q5VT25)
T9 construct: gene CDC42BPA
In short: as §1

FLT3 = FLT3 (Homo sapiens, UniProt P36888)
In short: as §1

NEK1 = NEK1 (Homo sapiens, UniProt Q96PY6)
In short: as §1

SGK3 = SGK3 (Homo sapiens, UniProt Q96BR1)
In short: as §1

BRK = molecular target: T10, BRK (Homo sapiens, UniProt Q13882)
T10 construct: gene PTK6
In short: as §1

IRAK4 = IRAK4 (Homo sapiens, UniProt Q9NWZ3)
In short: as §1

RON = molecular target: T11, RON (Homo sapiens, UniProt Q04912)
T11 construct: gene MST1R
In short: as §1

RET(M918T) = RET(M918T) (Homo sapiens, UniProt P07949, M918T)
In short: as §1

CaMK1δ = molecular target: T12, CaMK1δ (Homo sapiens, UniProt Q8IU85)
T12 construct: gene CAMK1D
In short: as §1

NuaK1 = NuaK1 (Homo sapiens, UniProt O60285)
In short: as §1

TYK2 = TYK2 (Homo sapiens, UniProt P29597)
In short: as §1

DYRK2 = DYRK2 (Homo sapiens, UniProt Q92630)
In short: as §1

PASK = PASK (Homo sapiens, UniProt Q96RG2)
In short: as §1

EPHA8 = EPHA8 (Homo sapiens, UniProt P29322)
In short: as §1

HIPK3 = HIPK3 (Homo sapiens, UniProt Q9H422)
In short: as §1

DDR2 = DDR2 (Homo sapiens, UniProt Q16832)
In short: as §1

MET(M1250T) = MET(M1250T) (Homo sapiens, UniProt P08581, M1250T)
In short: as §1

EPHA2 = EPHA2 (Homo sapiens, UniProt P29317)
In short: as §1

Sequence of PBK (Q96KB5 whole entry): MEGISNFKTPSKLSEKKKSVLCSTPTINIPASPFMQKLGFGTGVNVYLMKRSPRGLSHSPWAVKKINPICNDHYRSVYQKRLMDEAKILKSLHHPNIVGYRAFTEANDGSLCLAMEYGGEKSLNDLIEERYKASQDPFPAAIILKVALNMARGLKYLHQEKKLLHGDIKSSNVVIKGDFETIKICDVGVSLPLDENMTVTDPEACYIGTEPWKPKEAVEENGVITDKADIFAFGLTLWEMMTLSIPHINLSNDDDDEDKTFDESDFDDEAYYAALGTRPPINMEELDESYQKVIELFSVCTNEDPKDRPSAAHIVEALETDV
Sequence of IRAK4 (Q9NWZ3 whole entry): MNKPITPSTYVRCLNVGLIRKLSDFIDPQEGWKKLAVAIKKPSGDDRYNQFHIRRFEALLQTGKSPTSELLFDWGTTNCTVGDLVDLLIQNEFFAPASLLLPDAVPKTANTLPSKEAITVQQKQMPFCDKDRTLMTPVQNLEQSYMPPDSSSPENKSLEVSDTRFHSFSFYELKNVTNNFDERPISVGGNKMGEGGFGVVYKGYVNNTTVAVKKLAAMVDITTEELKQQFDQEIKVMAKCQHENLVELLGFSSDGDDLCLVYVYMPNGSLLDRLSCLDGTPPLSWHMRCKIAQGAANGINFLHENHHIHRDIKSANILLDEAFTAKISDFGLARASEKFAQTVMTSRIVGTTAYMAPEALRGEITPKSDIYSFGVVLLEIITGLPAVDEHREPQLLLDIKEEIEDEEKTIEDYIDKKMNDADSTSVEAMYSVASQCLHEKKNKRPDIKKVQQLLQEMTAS
Sequence of PASK (Q96RG2 whole entry): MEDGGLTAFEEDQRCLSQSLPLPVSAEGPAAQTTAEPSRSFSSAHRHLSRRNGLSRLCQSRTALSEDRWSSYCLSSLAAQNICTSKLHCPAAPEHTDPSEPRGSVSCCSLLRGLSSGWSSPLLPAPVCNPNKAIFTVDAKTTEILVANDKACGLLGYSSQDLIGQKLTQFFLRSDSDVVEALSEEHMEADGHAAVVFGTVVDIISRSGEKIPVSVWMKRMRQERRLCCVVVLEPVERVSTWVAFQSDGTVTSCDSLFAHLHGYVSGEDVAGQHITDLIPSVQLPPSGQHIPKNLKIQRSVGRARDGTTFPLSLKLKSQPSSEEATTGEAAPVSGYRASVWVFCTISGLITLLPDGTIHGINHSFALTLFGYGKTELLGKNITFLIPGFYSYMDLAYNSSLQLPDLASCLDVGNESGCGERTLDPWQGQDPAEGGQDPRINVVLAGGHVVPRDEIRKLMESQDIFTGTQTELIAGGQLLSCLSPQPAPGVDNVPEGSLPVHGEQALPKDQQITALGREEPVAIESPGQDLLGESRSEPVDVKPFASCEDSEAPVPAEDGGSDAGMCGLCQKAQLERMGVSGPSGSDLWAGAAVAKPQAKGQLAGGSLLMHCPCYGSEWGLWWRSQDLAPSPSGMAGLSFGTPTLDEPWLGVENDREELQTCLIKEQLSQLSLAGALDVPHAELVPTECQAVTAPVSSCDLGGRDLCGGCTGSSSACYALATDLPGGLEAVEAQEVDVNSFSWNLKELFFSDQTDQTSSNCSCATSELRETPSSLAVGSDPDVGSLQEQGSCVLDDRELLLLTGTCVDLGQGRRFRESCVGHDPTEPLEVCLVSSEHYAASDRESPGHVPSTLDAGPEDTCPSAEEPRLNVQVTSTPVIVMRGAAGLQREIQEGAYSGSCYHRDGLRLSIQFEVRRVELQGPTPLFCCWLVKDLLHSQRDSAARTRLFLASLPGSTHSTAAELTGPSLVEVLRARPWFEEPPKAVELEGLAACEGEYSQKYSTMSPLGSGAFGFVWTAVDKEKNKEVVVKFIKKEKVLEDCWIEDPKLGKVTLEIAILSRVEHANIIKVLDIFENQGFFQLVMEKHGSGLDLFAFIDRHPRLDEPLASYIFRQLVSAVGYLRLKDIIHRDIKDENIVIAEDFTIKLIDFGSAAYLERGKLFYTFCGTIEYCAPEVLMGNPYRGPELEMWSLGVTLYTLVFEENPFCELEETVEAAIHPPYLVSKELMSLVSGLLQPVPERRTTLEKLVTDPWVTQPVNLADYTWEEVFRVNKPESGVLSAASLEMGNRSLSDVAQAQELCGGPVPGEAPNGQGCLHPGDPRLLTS
Sequence of NEK1 (Q96PY6 whole entry): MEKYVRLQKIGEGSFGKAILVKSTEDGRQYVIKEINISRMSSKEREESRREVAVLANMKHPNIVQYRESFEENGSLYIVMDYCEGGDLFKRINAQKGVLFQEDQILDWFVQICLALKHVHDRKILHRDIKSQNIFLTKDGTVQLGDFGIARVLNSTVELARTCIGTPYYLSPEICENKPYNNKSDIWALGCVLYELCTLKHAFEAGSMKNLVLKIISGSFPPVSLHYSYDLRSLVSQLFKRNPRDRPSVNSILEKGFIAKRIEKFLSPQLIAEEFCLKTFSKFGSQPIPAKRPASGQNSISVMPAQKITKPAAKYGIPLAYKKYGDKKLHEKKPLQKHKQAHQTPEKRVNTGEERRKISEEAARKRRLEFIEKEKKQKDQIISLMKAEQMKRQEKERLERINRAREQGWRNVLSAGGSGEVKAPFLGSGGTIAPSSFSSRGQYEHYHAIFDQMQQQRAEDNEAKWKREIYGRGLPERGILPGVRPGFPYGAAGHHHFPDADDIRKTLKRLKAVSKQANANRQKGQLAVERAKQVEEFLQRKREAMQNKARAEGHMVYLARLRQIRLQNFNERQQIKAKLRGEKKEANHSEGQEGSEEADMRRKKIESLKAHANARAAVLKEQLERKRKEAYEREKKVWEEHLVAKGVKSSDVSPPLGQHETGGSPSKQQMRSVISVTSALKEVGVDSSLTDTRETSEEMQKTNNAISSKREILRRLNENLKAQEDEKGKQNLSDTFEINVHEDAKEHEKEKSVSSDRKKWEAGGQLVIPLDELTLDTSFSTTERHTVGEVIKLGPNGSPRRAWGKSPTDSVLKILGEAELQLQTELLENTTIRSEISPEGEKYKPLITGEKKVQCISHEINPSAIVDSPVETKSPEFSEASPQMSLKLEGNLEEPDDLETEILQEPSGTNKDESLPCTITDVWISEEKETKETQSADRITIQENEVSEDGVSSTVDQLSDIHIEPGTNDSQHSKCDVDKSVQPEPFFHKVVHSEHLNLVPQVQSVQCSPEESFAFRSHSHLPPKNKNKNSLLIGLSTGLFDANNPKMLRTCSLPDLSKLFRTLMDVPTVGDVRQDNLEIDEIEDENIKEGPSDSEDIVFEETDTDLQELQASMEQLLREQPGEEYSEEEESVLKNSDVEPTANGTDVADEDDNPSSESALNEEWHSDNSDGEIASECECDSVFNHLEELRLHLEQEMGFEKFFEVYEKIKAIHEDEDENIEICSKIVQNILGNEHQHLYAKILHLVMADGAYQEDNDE
Sequence of EPHA2 (P29317 whole entry): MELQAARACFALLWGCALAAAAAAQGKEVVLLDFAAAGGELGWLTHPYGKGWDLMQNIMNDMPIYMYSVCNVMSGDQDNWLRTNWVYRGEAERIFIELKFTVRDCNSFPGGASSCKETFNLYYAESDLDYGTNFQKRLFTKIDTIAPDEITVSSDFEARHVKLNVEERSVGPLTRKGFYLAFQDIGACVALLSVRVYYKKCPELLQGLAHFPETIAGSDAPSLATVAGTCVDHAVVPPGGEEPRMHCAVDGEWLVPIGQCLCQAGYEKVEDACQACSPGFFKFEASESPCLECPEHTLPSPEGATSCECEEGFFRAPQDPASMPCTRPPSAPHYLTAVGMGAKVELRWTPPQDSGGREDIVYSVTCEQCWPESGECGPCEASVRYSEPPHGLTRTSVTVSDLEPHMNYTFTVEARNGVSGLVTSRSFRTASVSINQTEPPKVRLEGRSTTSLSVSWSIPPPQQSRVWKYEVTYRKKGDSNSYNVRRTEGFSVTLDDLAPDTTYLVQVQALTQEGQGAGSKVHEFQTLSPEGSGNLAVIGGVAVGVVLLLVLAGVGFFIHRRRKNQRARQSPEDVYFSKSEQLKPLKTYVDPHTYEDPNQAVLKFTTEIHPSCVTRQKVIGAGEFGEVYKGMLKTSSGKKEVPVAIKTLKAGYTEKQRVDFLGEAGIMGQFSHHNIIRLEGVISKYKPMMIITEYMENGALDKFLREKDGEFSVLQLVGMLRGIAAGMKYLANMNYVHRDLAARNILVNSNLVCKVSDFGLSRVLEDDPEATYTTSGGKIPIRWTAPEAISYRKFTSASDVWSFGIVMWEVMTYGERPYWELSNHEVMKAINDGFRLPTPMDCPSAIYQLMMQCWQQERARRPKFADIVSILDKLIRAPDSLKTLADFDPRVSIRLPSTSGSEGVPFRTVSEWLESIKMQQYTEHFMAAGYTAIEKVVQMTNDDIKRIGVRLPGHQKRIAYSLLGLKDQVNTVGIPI

SMILES: c1cc(-c2ccc3[nH]ncc3c2)ccn1 [TG693, 5-(4-pyridinyl)-1H-indazole]
- inhibition at 1 µM (KIT(T670I)): -0.7%
- inhibition at 1 µM (PKCγ): -11.4%
- inhibition at 1 µM (CRIK): 16.9%
- inhibition at 1 µM (TRKA): 5.1%
- inhibition at 1 µM (CDC7/ASK): 10.8%
- inhibition at 1 µM (CK1δ): 21.3%
- inhibition at 1 µM (KDR): 0.1%
- inhibition at 1 µM (DCAMKL2): 9.6%
- inhibition at 1 µM (p38γ): 1.4%
- inhibition at 1 µM (PBK): -3.5%
- inhibition at 1 µM (JAK3): 11.6%
- inhibition at 1 µM (ABL): -1.3%
- inhibition at 1 µM (MST1): -1.9%
- inhibition at 1 µM (MRCKα): -18.2%
- inhibition at 1 µM (FLT3): 17.5%
- inhibition at 1 µM (NEK1): -1.5%
- inhibition at 1 µM (SGK3): -3.2%
- inhibition at 1 µM (BRK): 5.2%
- inhibition at 1 µM (IRAK4): 8.4%
- inhibition at 1 µM (RON): 1.1%
- inhibition at 1 µM (RET(M918T)): -2.6%
- inhibition at 1 µM (CaMK1δ): 7%
- inhibition at 1 µM (NuaK1): 7.5%
- inhibition at 1 µM (TYK2): 0.6%
- inhibition at 1 µM (DYRK2): 77.2%
- inhibition at 1 µM (PASK): 14.7%
- inhibition at 1 µM (EPHA8): 7.3%
- inhibition at 1 µM (HIPK3): -0.7%
- inhibition at 1 µM (DDR2): -2.2%
- inhibition at 1 µM (MET(M1250T)): -0.8%
- inhibition at 1 µM (EPHA2): 5.7%
